Laboratory results published in PubChem BioAssay AID330 (DTP/NCI, 2004).
Where “and” joins values, the source holds several entries; their conditions need not be identical. Equal values may be shown once. Inconclusive results and toxic doses are left out. Rule for the calls: active = survival T/C of 150% or more; inactive = T/C below 125% in these data. Square brackets hold non-standard residues; d marks the D form. Peptide text beside a SMILES is read from it. * marks the point of attachment. ξ: configuration not given here. Cbz = O=C(OCc1ccccc1)*; ξM = CSCCC(N)C(=O)O

System: P388 leukemia ip, CD2F1 mice, survival T/C
Experiment: NCI In Vivo Anticancer Drug Screen. Data for tumor model P388 Leukemia (intraperitoneal) in CD2F1 (CDF1) mice
Conditions: endpoint: median survival time, higher = longer survival
How it was run: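 Mice carrying the transplanted tumor received test compound or vehicle. Survival was recorded in each group, and the value is the treated-group measurement divided by that of the vehicle-treated control group.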

[1] = dose: 50.0 mg/kg/injection, schedule: Q01DX005 (ip), vehicle: Klucel (hydroxypropylcellulose) (HPC)
[2] = dose: 100.0 mg/kg/injection, schedule: Q01DX005 (ip), vehicle: Klucel (hydroxypropylcellulose) (HPC)
[3] = dose: 200.0 mg/kg/injection, schedule: Q01DX005 (ip), vehicle: Klucel (hydroxypropylcellulose) (HPC)
[4] = dose: 12.5 mg/kg/injection, schedule: Q01DX005 (ip), vehicle: saline with Tween-80
[5] = dose: 25.0 mg/kg/injection, schedule: Q01DX005 (ip), vehicle: saline with Tween-80
[6] = dose: 50.0 mg/kg/injection, schedule: Q01DX005 (ip), vehicle: saline with Tween-80
[7] = dose: 60.0 mg/kg/injection, schedule: Q01DX005 (ip), vehicle: saline with Tween-80
[8] = dose: 120.0 mg/kg/injection, schedule: Q01DX005 (ip), vehicle: saline with Tween-80
[9] = dose: 240.0 mg/kg/injection, schedule: Q01DX005 (ip), vehicle: saline with Tween-80
[10] = dose: 100.0 mg/kg/injection, schedule: Q01DX009 (ip), vehicle: saline with Tween-80
[11] = dose: 100.0 mg/kg/injection, schedule: Q01DX005 (ip), vehicle: saline with Tween-80
[12] = dose: 200.0 mg/kg/injection, schedule: Q01DX005 (ip), vehicle: saline with Tween-80
[13] = dose: 50.0 mg/kg/injection, schedule: Q01DX009 (ip), vehicle: saline with Tween-80
[14] = dose: 100.0 mg/kg/injection, schedule: Q04DX002 (ip), vehicle: saline with Tween-80
[15] = dose: 200.0 mg/kg/injection, schedule: Q04DX002 (ip), vehicle: saline with Tween-80

Measured: T/C

[O-]c1n[n+](-c2ccccc2)ns1
inactive: dose: 3.13 mg/kg/injection, schedule: Q01DX009 (ip), vehicle: distilled water + Tween-80 99 % of control and 106 % of control | dose: 6.25 mg/kg/injection, schedule: Q01DX009 (ip), vehicle: distilled water + Tween-80 99 % of control and 101 % of control and 114 % of control | dose: 12.5 mg/kg/injection, schedule: Q01DX009 (ip), vehicle: distilled water + Tween-80 100 % of control and 105 % of control and 124 % of control | dose: 25.0 mg/kg/injection, schedule: Q01DX009 (ip), vehicle: distilled water + Tween-80 99 % of control and 115 % of control and 92 % of control

COc1ccc2c(c1)[C@H]1[C@H]([C@H]3O[C@@H]1c1ccccc13)S(=O)N2 (stereo not given in full)
inactive: [1] 95 % of control | [2] 96 % of control | [3] 92 % of control

CC(C)(C)/C=C/N1CCN=N1
inactive: [4] 100 % of control | [5] 104 % of control | [6] 102 % of control and 109 % of control

C=C(Br)COc1ccc2c(C)cc(=O)oc2c1
inactive: [7] 115 % of control | [8] 100 % of control | [9] 96 % of control

COCC/C(COC)=N\N=C(/CCOC)COC
inactive: [10] 109 % of control | dose: 100.0 mg/kg/injection, schedule: Q04DX003 (ip), vehicle: saline sonified 104 % of control | dose: 200.0 mg/kg/injection, schedule: Q04DX003 (ip), vehicle: saline sonified 100 % of control | dose: 400.0 mg/kg/injection, schedule: Q04DX003 (ip), vehicle: saline sonified 104 % of control

O=c1[nH]c(=O)c2[nH]c(N=Nc3ccc(S(=O)(=O)O)cc3)nc2[nH]1
inactive: [1] 95 % of control | [2] 99 % of control | [3] 100 % of control

CS/C(=C\c1ccc2ccccc2[n+]1C)N1CCN(CCCO)CC1
inactive: dose: 15.0 mg/kg/injection, schedule: Q01DX005 (ip), vehicle: saline 104 % of control | dose: 30.0 mg/kg/injection, schedule: Q01DX005 (ip), vehicle: saline 95 % of control | dose: 60.0 mg/kg/injection, schedule: Q01DX005 (ip), vehicle: saline 95 % of control

CC(=O)OC1C=CC(=O)C1 (stereo not given)
inactive: dose: 7.5 mg/kg/injection, schedule: Q01DX005 (ip), vehicle: saline with Tween-80 122 % of control | dose: 15.0 mg/kg/injection, schedule: Q01DX005 (ip), vehicle: saline with Tween-80 116 % of control

CCSc1ccc(N2C(N)=NC(N)=NC2(C)C)cc1
inactive: dose: 6.25 mg/kg/injection, schedule: Q01DX005 (ip), vehicle: saline with Tween-80 103 % of control | [4] 103 % of control | [5] 118 % of control

NC(N)=N/C(N)=N\c1nn[nH]n1
inactive: dose: 100.0 mg/kg/injection, schedule: Q01DX001 (ip), vehicle: saline 95 % of control | dose: 200.0 mg/kg/injection, schedule: Q01DX001 (ip), vehicle: saline 100 % of control | dose: 400.0 mg/kg/injection, schedule: Q01DX001 (ip), vehicle: saline 100 % of control

CC(C)(C)SC(=S)SCC(=O)c1ccc(Cl)cc1
inactive: [7] 99 % of control | [8] 98 % of control | [9] 100 % of control

C[As](C)SCC(N)C(=O)O (stereo not given)
inactive: dose: 12.5 mg/kg/injection, schedule: Q01DX009 (ip), vehicle: Klucel (hydroxypropylcellulose) (HPC) 107 % of control | dose: 25.0 mg/kg/injection, schedule: Q01DX009 (ip), vehicle: Klucel (hydroxypropylcellulose) (HPC) 106 % of control | dose: 50.0 mg/kg/injection, schedule: Q01DX009 (ip), vehicle: Klucel (hydroxypropylcellulose) (HPC) 103 % of control and 110 % of control

O=C1CCC(=O)Nc2ccc3nc4ccccc4c(c3c2)SCCCCCCCCCCCCSc2c3ccccc3nc3ccc(cc23)N1
inactive: [6] 110 % of control | [11] 97 % of control | [12] 107 % of control

O=C(O)c1ccc(/C=C2\COc3ccccc3C2=O)cc1
inactive: [7] 103 % of control | [8] 112 % of control | [9] 112 % of control

CC1(C)OC(=O)C(=Cc2ccc([N+](=O)[O-])s2)C(=O)O1
inactive: [13] 103 % of control and 110 % of control | [10] 109 % of control and 122 % of control | dose: 200.0 mg/kg/injection, schedule: Q01DX009 (ip), vehicle: saline with Tween-80 111 % of control and 124 % of control

COc1cc(CCCNC(C)=O)cc(OC)c1OC
inactive: dose: 25.0 mg/kg/injection, schedule: Q01DX005 (ip), vehicle: water 105 % of control | dose: 50.0 mg/kg/injection, schedule: Q01DX005 (ip), vehicle: water 98 % of control | dose: 100.0 mg/kg/injection, schedule: Q01DX005 (ip), vehicle: water 96 % of control | dose: 200.0 mg/kg/injection, schedule: Q01DX005 (ip), vehicle: water 98 % of control

O=C(O)C(O)C(F)(F)C(F)(F)C(F)(F)F (stereo not given)
inactive: [6] 97 % of control | [11] 94 % of control | [12] 88 % of control

CC(C)(O)[C@@H]1Cc2cc3ccc(=O)oc3cc2O1
inactive: dose: 1.0 mg/kg/injection, schedule: Q01DX005 (ip), vehicle: Klucel (hydroxypropylcellulose) (HPC) 89 % of control | dose: 2.0 mg/kg/injection, schedule: Q01DX005 (ip), vehicle: Klucel (hydroxypropylcellulose) (HPC) 102 % of control | dose: 4.0 mg/kg/injection, schedule: Q01DX005 (ip), vehicle: Klucel (hydroxypropylcellulose) (HPC) 98 % of control | dose: 8.0 mg/kg/injection, schedule: Q01DX005 (ip), vehicle: Klucel (hydroxypropylcellulose) (HPC) 96 % of control | dose: 16.0 mg/kg/injection, schedule: Q01DX005 (ip), vehicle: Klucel (hydroxypropylcellulose) (HPC) 96 % of control

COC1C(CN(C)N=Nc2ccccc2C(N)=O)OC2OC(C)(C)OC21 (stereo not given)
inactive: [14] 94 % of control | [15] 91 % of control | dose: 400.0 mg/kg/injection, schedule: Q04DX002 (ip), vehicle: saline with Tween-80 91 % of control

Nc1nc2[nH]ccc2c(=O)[nH]1
inactive: dose: 12.5 mg/kg/injection, schedule: Q01DX009 (ip), vehicle: saline with Tween-80 95 % of control | dose: 25.0 mg/kg/injection, schedule: Q01DX009 (ip), vehicle: saline with Tween-80 94 % of control | [13] 104 % of control | [10] 113 % of control

[Cu+2].[Cu+2].c1ccc2c(c1)-c1nc-2nc2[n-]c(nc3nc(nc4[n-]c(n1)c1ccccc41)-c1ccccc1-3)c1cc3c4nc5nc(nc6[n-]c(nc7nc(nc([n-]4)c3cc21)-c1ccccc1-7)c1ccccc61)-c1ccccc1-5
inactive: [7] 100 % of control | [8] 89 % of control | [9] 95 % of control

CC(C)(C)OOC(=O)/C=C/c1ccccc1
inactive: [7] 101 % of control | [8] 108 % of control | [9] 92 % of control

CSCCC(NC(=O)CNC(=O)CNC(=O)OCc1ccccc1)C(=O)O (stereo not drawn) (Cbz-Gly-Gly-[ξM]-OH)
inactive: [1] 95 % of control | [2] 98 % of control | [3] 98 % of control

CCOC(=O)c1c[nH]n2ccnc12
inactive: [14] 100 % of control | [15] 103 % of control

O=C1Nc2c(Cl)cc(Cl)cc2/C1=N/N=C/c1ccccc1O
inactive: [6] 91 % of control

CCCCN(CCCC)C(=N)c1c2ccccc2nc2ccccc12
inactive: dose: 6.25 mg/kg/injection, schedule: Q01DX005 (ip), vehicle: saline 90 % of control | dose: 12.5 mg/kg/injection, schedule: Q01DX005 (ip), vehicle: saline 97 % of control | dose: 25.0 mg/kg/injection, schedule: Q01DX005 (ip), vehicle: saline 103 % of control

C/C=C1\CC2(OC1=O)C(=O)NC(=O)NC2=O
inactive: dose: 50.0 mg/kg/injection, schedule: Q01DX009 (ip), vehicle: saline 103 % of control | dose: 100.0 mg/kg/injection, schedule: Q01DX009 (ip), vehicle: saline 94 % of control

CC1=C(C#N)C(=O)OC1(C)C(CC(=O)c1ccccc1)c1ccccc1 (stereo not given)
inactive: [7] 92 % of control | [8] 87 % of control | [9] 91 % of control
